Species: Rattus norvegicus
Assay: Open TG-GATES - Regimen: Single
Assay type: toxicity, organism-based, Sprague-Dawley
Parameters: regimen Single, gender Male, age 6 weeks
Details: in vivo, po, 100 mg/kg, route gavage, dose level Low; for APTT / Bas / Eos / Fbg / Hb / Ht / Lym / MCH / MCHC / MCV / Mono / Neu / PT / Plat / RBC / Ret / WBC: tissue Blood; for KIDNEY_L / KIDNEY_R / KIDNEY_TOTAL: tissue Kidney; for LIVER: tissue Liver; for A/G / ALP / ALT / AST / BUN / CRE / Ca / Cl / DBIL / GLC / IP / K / LDH / Na / PL / RALB / TBIL / TC / TG / TP / gamma-GTP: tissue Plasma

Compound `CC(C)(S)[C@@H](N)C(=O)O` [PENICILLAMINE] has a TERMINAL_BW (3 h) of 201.7 g, an APTT (3 h) of 15.4 s and a Bas (3 h) of 0%. It also gave an Eos (3 h) of 1%, a Fbg (3 h) of 283 mg/dL and a Hb (3 h) of 13.5 g/dL. The Ht (3 h) was 41.8%, the Lym (3 h) was 79.2% and the MCH (3 h) was 20.5 pg. For the same compound, the MCHC (3 h) was 32.4%, the MCV (3 h) was 63.4 fL and the Mono (3 h) was 2.8%. For the same compound, the Neu (3 h) was 16.4%, the PT (3 h) was 15 s and the Plat (3 h) was 118.1 x10_4/uL. It also gave an RBC (3 h) of 659.6 x10_4/ul, a Ret (3 h) of 9.3% and a WBC (3 h) of 78.7 x10_2/uL. The KIDNEY_L (3 h) was 0.9 g, the KIDNEY_R (3 h) was 0.9 g and the KIDNEY_TOTAL (3 h) was 1.8 g. It also gave an LIVER (3 h) of 8.7 g, an A/G (3 h) of 1 and an ALP (3 h) of 1342 IU/L. It also gave an ALT (3 h) of 42.6 IU/L, an AST (3 h) of 74.4 IU/L and a BUN (3 h) of 9.6 mg/dL. For the same compound, the CRE (3 h) was 0.2 mg/dL, the Ca (3 h) was 10.8 mg/dL and the Cl (3 h) was 106.6 meq/L. It also gave a DBIL (3 h) of 0.012 mg/dL, a GLC (3 h) of 186.8 mg/dL and an IP (3 h) of 8.2 mg/dL. For the same compound, the K (3 h) was 4.3 meq/L, the LDH (3 h) was 61.2 IU/L and the Na (3 h) was 142.2 meq/L. It also gave a PL (3 h) of 139 mg/dL, an RALB (3 h) of 2.6 g/dL and a TBIL (3 h) of 0.036 mg/dL. For the same compound, the TC (3 h) was 74.4 mg/dL, the TG (3 h) was 63.6 mg/dL and the TP (3 h) was 5.3 g/dL. It also gave a gamma-GTP (3 h) of 1 IU/L, a TERMINAL_BW (6 h) of 200.9 g and an APTT (6 h) of 18.6 s. For the same compound, the Bas (6 h) was 0%, the Eos (6 h) was 1% and the Fbg (6 h) was 310 mg/dL. For the same compound, the Hb (6 h) was 13.4 g/dL, the Ht (6 h) was 41.5% and the Lym (6 h) was 74.8%. It also gave an MCH (6 h) of 20.6 pg, an MCHC (6 h) of 32.2% and an MCV (6 h) of 63.9 fL. It also gave a Mono (6 h) of 3%, a Neu (6 h) of 20.6% and a PT (6 h) of 14.7 s. The Plat (6 h) was 117.7 x10_4/uL, the RBC (6 h) was 651 x10_4/ul and the Ret (6 h) was 9.1%. For the same compound, the WBC (6 h) was 91.5 x10_2/uL, the KIDNEY_L (6 h) was 0.9 g and the KIDNEY_R (6 h) was 0.9 g. It also gave a KIDNEY_TOTAL (6 h) of 1.8 g, an LIVER (6 h) of 8.2 g and an A/G (6 h) of 0.9. For the same compound, the ALP (6 h) was 1252 IU/L, the ALT (6 h) was 38 IU/L and the AST (6 h) was 76 IU/L. For the same compound, the BUN (6 h) was 7.2 mg/dL, the CRE (6 h) was 0.2 mg/dL and the Ca (6 h) was 10.7 mg/dL. It also gave a Cl (6 h) of 106.6 meq/L, a DBIL (6 h) of 0.01 mg/dL and a GLC (6 h) of 175.4 mg/dL. It also gave an IP (6 h) of 8.7 mg/dL, a K (6 h) of 4 meq/L and an LDH (6 h) of 63.8 IU/L. The Na (6 h) was 143 meq/L, the PL (6 h) was 138.2 mg/dL and the RALB (6 h) was 2.5 g/dL. It also gave a TBIL (6 h) of 0.038 mg/dL, a TC (6 h) of 78.8 mg/dL and a TG (6 h) of 44.6 mg/dL. For the same compound, the TP (6 h) was 5.2 g/dL, the gamma-GTP (6 h) was 1.2 IU/L and the TERMINAL_BW (9 h) was 200 g. It also gave an APTT (9 h) of 15.2 s, a Bas (9 h) of 0% and an Eos (9 h) of 0.8%. It also gave a Fbg (9 h) of 315.8 mg/dL, a Hb (9 h) of 13.3 g/dL and a Ht (9 h) of 41.2%. For the same compound, the Lym (9 h) was 78%, the MCH (9 h) was 20.5 pg and the MCHC (9 h) was 32.3%. The MCV (9 h) was 63.6 fL, the Mono (9 h) was 2.2% and the Neu (9 h) was 18.4%. The PT (9 h) was 14.3 s, the Plat (9 h) was 124 x10_4/uL and the RBC (9 h) was 647.4 x10_4/ul. For the same compound, the Ret (9 h) was 9%, the WBC (9 h) was 74.3 x10_2/uL and the KIDNEY_L (9 h) was 0.9 g. For the same compound, the KIDNEY_R (9 h) was 0.9 g, the KIDNEY_TOTAL (9 h) was 1.8 g and the LIVER (9 h) was 7.9 g. For the same compound, the A/G (9 h) was 0.9, the ALP (9 h) was 1373.8 IU/L and the ALT (9 h) was 40 IU/L. The AST (9 h) was 68.6 IU/L, the BUN (9 h) was 9.6 mg/dL and the CRE (9 h) was 0.2 mg/dL. The Ca (9 h) was 10.7 mg/dL, the Cl (9 h) was 106.4 meq/L and the DBIL (9 h) was 0.008 mg/dL. It also gave a GLC (9 h) of 166.2 mg/dL, an IP (9 h) of 10 mg/dL and a K (9 h) of 4 meq/L. For the same compound, the LDH (9 h) was 54.4 IU/L, the Na (9 h) was 143.2 meq/L and the PL (9 h) was 137 mg/dL. The RALB (9 h) was 2.6 g/dL, the TBIL (9 h) was 0.034 mg/dL and the TC (9 h) was 79.6 mg/dL. It also gave a TG (9 h) of 45 mg/dL, a TP (9 h) of 5.4 g/dL and a gamma-GTP (9 h) of 1.2 IU/L. The TERMINAL_BW (24 h) was 219.1 g, the APTT (24 h) was 16.6 s and the Bas (24 h) was 0%. For the same compound, the Eos (24 h) was 0.8%, the Fbg (24 h) was 272.4 mg/dL and the Hb (24 h) was 13 g/dL. For the same compound, the Ht (24 h) was 40%, the Lym (24 h) was 78.6% and the MCH (24 h) was 20.8 pg. For the same compound, the MCHC (24 h) was 32.4%, the MCV (24 h) was 64.2 fL and the Mono (24 h) was 2.8%. For the same compound, the Neu (24 h) was 16.8%, the PT (24 h) was 14.2 s and the Plat (24 h) was 125.3 x10_4/uL. It also gave an RBC (24 h) of 623.4 x10_4/ul, a Ret (24 h) of 8% and a WBC (24 h) of 90.1 x10_2/uL. For the same compound, the KIDNEY_L (24 h) was 0.9 g, the KIDNEY_R (24 h) was 0.9 g and the KIDNEY_TOTAL (24 h) was 1.9 g. For the same compound, the LIVER (24 h) was 10.4 g, the A/G (24 h) was 0.9 and the ALP (24 h) was 1649.2 IU/L. For the same compound, the ALT (24 h) was 45 IU/L, the AST (24 h) was 70.4 IU/L and the BUN (24 h) was 13.4 mg/dL. For the same compound, the CRE (24 h) was 0.2 mg/dL, the Ca (24 h) was 11 mg/dL and the Cl (24 h) was 104.4 meq/L. It also gave a DBIL (24 h) of 0.012 mg/dL, a GLC (24 h) of 178.6 mg/dL and an IP (24 h) of 7.9 mg/dL. The K (24 h) was 4 meq/L, the LDH (24 h) was 81.6 IU/L and the Na (24 h) was 143.2 meq/L. For the same compound, the PL (24 h) was 155.2 mg/dL, the RALB (24 h) was 2.7 g/dL and the TBIL (24 h) was 0.026 mg/dL. The TC (24 h) was 81.6 mg/dL, the TG (24 h) was 93.6 mg/dL and the TP (24 h) was 5.5 g/dL. It also gave a gamma-GTP (24 h) of 1 IU/L.
